Source: US9861099B2, “Composition for enhancing plant disease control effect of monosaccharide” (MITSUI CHEMICALS AGRO, INC., priority 2013, dated 2018)

Assays:
Format in all cases: in vivo
[1] = test system: Pseudoperonospora cubensis; experiment: Cucumber downy mildew (CDM) control test; details: for control effect against cucumber downy mildew: Test Example 10, D-tagatose only
Plasmopara viticola = experiment: Grape vine downy mildew (VDM) control test; details: for control effect against grape vine downy mildew: Test Example 10, D-tagatose only
Sphaerotheca cucurbitae = experiment: Cucumber powdery mildew (CPM) control test; details: for control effect against cucumber powdery mildew: Test Example 10, D-tagatose only
Puccinia recondita = experiment: Wheat brown rust (WR) control test
Phytophthora infestans = details: Test Example 10, D-tagatose only, treatment concentration 5%
[2] = test system: Blumeria graminis f sp. hordei; experiment: Barley powdery mildew (BPM) control test; details: Test Example 10, D-tagatose only
Description: (BPM: Barley Powdery Mildew) Test plants (barley variety: Sekishinryoku) were planted followed by cultivating until the second leaf appeared. In the test, dilutions (5 ml/pot) obtained by diluting with distilled water so that each formula reached a prescribed concentration were sprayed. After inoculating the seedlings one day after spraying by shaking off conidia of Blumeria graminis f sp. hordei onto the seedlings, disease development was investigated 7 days after, and the effects thereof were evaluated. Disease development was evaluated using the following indicators for disease control tests evaluated according to the methods described above. Furthermore, preventive values were calculated based on the disease development.

Phakopsora ampelopsidis = experiment: Grape vine rust (VR) control test; details: Test Example 10, D-tagatose only, treatment concentration 5%
Description: (VR: Vine Rust) Test plants (grape variety: Neomuscat) were planted followed by cultivating until three to four first leaves appeared. In the test, dilutions (5 ml/pot) obtained by diluting with distilled water so that each formula reached a prescribed concentration were sprayed. After inoculating the seedlings one day after spraying by spraying with 1×10^7 organisms/ml of uredospores of Phakopsora ampelopsidis, the seedlings were allowed to stand for about 24 hours in an inoculation room at a room temperature of 20° C. to 23° C. to promote the onset of disease. Disease development was investigated 12 days after inoculation, and the effects thereof were evaluated. Disease development was evaluated using the following indicators for disease control tests evaluated according to the methods described above. Furthermore, preventive values were calculated based on the disease development.

Phakopsora pachyrhizi = experiment: Soybean rust (SR) control test; details: Test Example 10, D-tagatose only, treatment concentration 5%
Botrytis cinerea = experiment: Tomato gray mold (GM) control test; details: Test Example 10, D-tagatose only, treatment concentration 5%
Description: (GM: Gray Mold) Test plants (tomato variety: Oogata Fukuju) were planted followed by cultivating until three first leaves appeared. In the test, dilutions (5 ml/pot) obtained by diluting with distilled water so that each formula reached a prescribed concentration were sprayed. After inoculating the seedlings one day after spraying by spraying with 1×10^7 organisms/ml of conidia of Botrytis cinerea, the seedlings were allowed to stand for about 48 hours in an inoculation room at a room temperature of 20° C. to 23° C. to promote the onset of disease. Disease development was investigated 2 days after inoculation, and the effects thereof were evaluated. Disease development was evaluated using the following indicators for disease control tests evaluated according to the methods described above. Furthermore, preventive values were calculated based on the disease development.

Magnaporthe grisea = details: Test Example 10, D-tagatose only, treatment concentration 5%
[3] = test system: Colletotrichum orbiculare; experiment: Cucumber anthracnose (CA) control test; details: Test Example 10, D-tagatose only, treatment concentration 5%
Description: (CA: Cucumber Anthracnose) Test plants (cucumber variety: Sagami Hanjiro) were planted followed by cultivating until the first leaf appeared. In the test, dilutions (5 ml/pot) obtained by diluting with distilled water so that each formula reached a prescribed concentration were sprayed. After inoculating the seedlings one day after spraying by spraying with 1×10^7 organisms/ml of conidia of Colletotrichum orbiculare, the seedlings were allowed to stand for about 24 hours in an inoculation room at a room temperature of 20° C. to 23° C. to promote the onset of disease. Disease development was investigated 10 days after inoculation, and the effects thereof were evaluated. Disease development was evaluated using the following indicators for disease control tests evaluated according to the methods described above. Furthermore, preventive values were calculated based on the disease development.

Venturia inaequalis = experiment: Apple scab (AS) control test; details: Test Example 10, D-tagatose only, treatment concentration 5%
Description: (AS: Apple Scab) Test plants (apple variety: Ohrin) were planted followed by cultivating until four first leaves appeared. In the test, dilutions (5 ml/pot) obtained by diluting with distilled water so that each formula reached a prescribed concentration were sprayed. After inoculating the seedlings one day after spraying by spraying with 1×10^5 organisms/ml of conidia of Venturia inaequalis, the seedlings were allowed to stand for about 24 hours in an inoculation room at a room temperature of 18° C. to 20° C. to promote the onset of disease. Disease development was investigated 10 days after inoculation, and the effects thereof were evaluated. Disease development was evaluated using the following indicators for disease control tests evaluated according to the methods described above. Furthermore, preventive values were calculated based on the disease development.

Septoria tritici = experiment: Wheat septoria leaf blotch (SLB) control test; details: Test Example 10, D-tagatose only, treatment concentration 5%
Description: (SLB: Septoria Leaf Blotch) Test plants (wheat variety: Norin 61) were planted followed by cultivating until the second leaf appeared. In the test, dilutions (5 ml/pot) obtained by diluting with distilled water so that each formula reached a prescribed concentration were sprayed. After inoculating the seedlings one day after spraying by spraying with 1×10^7 organisms/ml of conidia of Septoria tritici, the seedlings were allowed to stand for about 24 hours in an inoculation room at a room temperature of 18° C. to promote the onset of disease. Disease development was investigated 14 days after inoculation, and the effects thereof were evaluated. Disease development was evaluated using the following indicators for disease control tests evaluated according to the methods described above. Furthermore, preventive values were calculated based on the disease development.

Pythium aphanidermatum = experiment: Pythium red blight of bentgrass, soil irrigation treatment; details: Comparative Example, main agent only (D-tagatose 80 parts), no assistant; 100-fold dilution, soil irrigation 3 L/m^2; five days after inoculation
Description: The effects of the D-tagatose water-soluble powders containing anionic surfactant prepared in Example 11 on grass red blight were evaluated. Test plants (grass variety: Bentgrass) were planted, and three weeks later, cut to a height of 1 cm prior to use in the test. In the test, after inoculating the seedlings with Pythium aphanidermatum preliminarily cultured in wheat bran medium, dilutions obtained by diluting each formula 100-fold with well water were used to treat soil by irrigating at 3 L/m^2 (treatment concentrations: D-tagatose 0.8%+assistant 0.2%). After investigating the onset of disease five days after inoculation, control values were calculated from the diseased area. Effects were evaluated using the same evaluation method as Test Example 10.

Pythium ultimum = experiment: Cabbage damping-off, soil irrigation treatment; details: formula containing D-tagatose only, 80-fold dilution (D-tagatose 1%)
Description: The effects of the D-tagatose water-soluble powders containing anionic surfactant prepared in Example 11 on […] were evaluated. Test soil was inoculated by contacting with Pythium ultimum preliminarily cultured in wheat bran medium followed by planting the test plants (cabbage variety: Shikidori) therein. The soil was treated by irrigating at 3 L/m^2 with the formulations which had been 80-fold diluted with well water (treatment concentrations: D-tagatose 1%+assistant 0.25%). […] Effects were evaluated using the same evaluation method as Test Example 1. The protective value with respect to cabbage damping-off of a formula containing D-tagatose only was 29.9.

[4] = Test Example 12, D-tagatose 5 parts + Assistant 1 5 parts, 10-fold dilution (D-tagatose 0.5% + Assistant 1 0.5%)
[5] = formula containing D-tagatose only, treatment concentration 0.8%

In the case of `O=C(CO)[C@@H](O)[C@@H](O)[C@H](O)CO` [D-tagatose, reference compound], the “control effect against cucumber downy mildew” value ([1]; treatment concentration 0.8%) is reported as “not adequate”, the “control effect against cucumber downy mildew” value ([1]; treatment concentration 5%) is reported as “high control effect” and the “Protective Value Index CDM, Assistant 1” value [1, 4] is reported as 2 (Preventive value of 60 to less than 80). The “preventive value, cucumber downy mildew” value ([1]; formula containing D-tagatose only, treatment concentration 0.4%) was “about 50 (40 to 60)”, the “control effect against grape vine downy mildew” value (Plasmopara viticola; treatment concentration 0.8%) was “not adequate” and the “control effect against grape vine downy mildew” value (Plasmopara viticola; treatment concentration 5%) was “high control effect”. For the same compound, the “Protective Value Index VDM, Assistant 1” value (Plasmopara viticola; [4]) was 1 (Preventive value of 30 to less than 60), the “preventive value, grape vine downy mildew” value (Plasmopara viticola; [5]) was “about 40 (30 to 50)” and the “control effect against cucumber powdery mildew” value (Sphaerotheca cucurbitae; treatment concentration 0.8%) was “not adequate”. The “control effect against cucumber powdery mildew” value (Sphaerotheca cucurbitae; treatment concentration 5%) was “high control effect”, the “Protective Value Index CPM, Assistant 1” value (Sphaerotheca cucurbitae; [4]) was 2 (Preventive value of 60 to less than 80) and the “preventive value, cucumber powdery mildew” value (Sphaerotheca cucurbitae; [5]) was “about 50 (40 to 60)”. The “effects against wheat rust” value (Puccinia recondita; Test Example 10, D-tagatose only, treatment concentration 5%) was “not adequate”, the “preventive value, wheat rash” value (Puccinia recondita; [5]) was “about 5 (0 to 10)” and the “effects against tomato late blight” value (Phytophthora infestans) was “not adequate”. For the same compound, the “control effect against barley powdery mildew” value ([2]; treatment concentration 0.8%) was “not adequate”, the “control effect against barley powdery mildew” value ([2]; treatment concentration 5%) was “high control effect” and the “effects against grape vine rust” value (Phakopsora ampelopsidis) was “not adequate”. The “effects against soybean rust” value (Phakopsora pachyrhizi) was “not adequate”, the “effects against tomato gray mold” value (Botrytis cinerea) was “not adequate” and the “effects against rice blast” value (Magnaporthe grisea) was “not adequate”. The “effects against cucumber anthracnose” value [3] was “not adequate”, the “effects against apple scab” value (Venturia inaequalis) was “not adequate” and the “effects against wheat speckled leaf blotch” value (Septoria tritici) was “not adequate”. The “Preventive Value Indices, bentgrass red blight” value (Pythium aphanidermatum) was 1 (Preventive value of 30 to less than 60) and the “protective value, cabbage damping-off” value (Pythium ultimum) was 29.9.
